Test: Human HepG2 cell viability assay in 384 well format
Assay type: toxicity, cell-based
Parameters: dose 125 nL, time 70.5 hour; concentration not given beside the values
Conditions: HepG2 cells, read-out: Inhibition

CCOc1ccc(C(=O)N2CCCC2c2c(C)nn(C)c2OC)cn1 (configuration not stated)
cytotoxicity at 70.5 h: -4.47%

CS(=O)(=O)N1CCC(NC(=O)COc2ccc(Br)cc2Cl)CC1
cytotoxicity at 70.5 h: 30.2%

CC(C)C(C)NC(=O)Nc1ccc(F)c(C(N)=O)c1 (configuration not stated)
cytotoxicity at 70.5 h: -3.91%

CCOc1ncccc1C(=O)NC1CCCN(c2ncccn2)C1 (configuration not stated)
cytotoxicity at 70.5 h: 1.87%

CC(CNC(=O)c1ccc(=O)[nH]n1)N1CCc2ccccc21 (configuration not stated)
cytotoxicity at 70.5 h: 2.77%

CS(=O)(=O)N1CCC(NC(=O)COc2ccc(Cl)cc2)CC1
cytotoxicity at 70.5 h: -4.42%

COc1cccc(CNCc2ccc(NC(=O)NC(C)C)cc2)c1
cytotoxicity at 70.5 h: 7.1%

Cc1cccc(CNCc2ccc(NC(=O)NC(C)C)cc2)c1
cytotoxicity at 70.5 h: 2.57%

CCOc1cccc(CNCc2ccc(NC(=O)NC(C)C)cc2)c1
cytotoxicity at 70.5 h: 4.86%

COC(=O)c1cccn1C1CCN(Cc2nc3ccccc3o2)CC1
cytotoxicity at 70.5 h: -3.04%

CN(Cc1ccc(F)cc1)C(=O)CN1CCOC(Cn2cccn2)C1 (configuration not stated)
cytotoxicity at 70.5 h: 0.224%

CN(Cc1ccco1)C(=O)CN1CCOC(Cn2cccn2)C1 (configuration not stated)
cytotoxicity at 70.5 h: -1.5%

CC(C)CCOCCNC(=O)Nc1ccc(F)c(C(N)=O)c1
cytotoxicity at 70.5 h: -1.3%

O=S(=O)(CCNC1CCc2ncnn2C1)c1ccc(Cl)cc1 (configuration not stated)
cytotoxicity at 70.5 h: -1.07%

O=S(=O)(CCCN1CCCC(Cn2cncn2)C1)c1ccccc1 (configuration not stated)
cytotoxicity at 70.5 h: 4.82%

O=C(c1cc(Cl)ccc1F)N1CCCC1Cn1cccn1 (configuration not stated)
cytotoxicity at 70.5 h: 22.7%

Cc1cnn(CC2CCCN2C(=O)c2ccc(F)c(F)c2)c1 (configuration not stated)
cytotoxicity at 70.5 h: -0.479%

COC(=O)c1cccn1C1CCN(Cc2cnc3ccccn23)CC1
cytotoxicity at 70.5 h: 10.2%

COc1cccc(OCC(=O)NS(=O)(=O)c2ccc(Br)s2)c1
cytotoxicity at 70.5 h: 0.256%

CCc1n[nH]c(C2CN(C(=O)Cc3cccs3)CCO2)n1 (configuration not stated)
cytotoxicity at 70.5 h: 25.1%

CC(=O)N(Cc1noc(C)n1)C1CCN(Cc2cccc(C#N)c2)C1 (configuration not stated)
cytotoxicity at 70.5 h: 30.1%

Cc1csc(C2CCCCN2C(=O)CN(C)C(C)C)n1 (configuration not stated)
cytotoxicity at 70.5 h: 25.2%

CC(C)(C)c1ncc(CNCC2CCCN2c2cccnn2)s1 (configuration not stated)
cytotoxicity at 70.5 h: 5.55%

CCN(CC)CC(=O)N1CCCCC1c1nc(C)cs1 (configuration not stated)
cytotoxicity at 70.5 h: -2.06%

CSc1ccc(C)c(C(=O)N2CCCC(n3cncn3)C2)c1 (configuration not stated)
cytotoxicity at 70.5 h: -2.61%

OCC1CCCN1c1cc(NCc2cccs2)ncn1 (configuration not stated)
cytotoxicity at 70.5 h: 17.3%

FC(F)CN1CCOC(Cn2cccn2)C1 (configuration not stated)
cytotoxicity at 70.5 h: -3.37%

COc1ccc(C(C)NC(=O)Cn2ccc(=O)n(C)c2=O)cc1F (configuration not stated)
cytotoxicity at 70.5 h: -2.29%

CC(NC(=O)Cn1ccc(=O)n(C)c1=O)c1cc(F)ccc1F (configuration not stated)
cytotoxicity at 70.5 h: -1.78%

CN(C)c1cc(CNC(=O)Nc2nccs2)ccn1
cytotoxicity at 70.5 h: -1.57%

COc1cc(CNC(=O)Nc2nnc(C(C)C)s2)ccn1
cytotoxicity at 70.5 h: 1.23%

CN(C)c1cc(CNC(=O)Nc2nnc(C3CC3)s2)ccn1
cytotoxicity at 70.5 h: 1.07%

CN(C)c1cc(CNC(=O)Nc2nncs2)ccn1
cytotoxicity at 70.5 h: -0.639%

Cc1nn(C)c(N(C)C)c1CNCc1ccc(C(=O)N(C)C)cc1
cytotoxicity at 70.5 h: 4.69%

O=C(Cc1cn2ccccc2n1)N1CCCC(n2cccn2)C1 (configuration not stated)
cytotoxicity at 70.5 h: 23.8%

Cc1cc(C)n(C2CCCN(C(=O)c3cc(C(N)=O)cs3)C2)n1 (configuration not stated)
cytotoxicity at 70.5 h: 0.983%

Cc1cc(C(=O)N2CCCC(n3ccnc3)C2)c(C)n1C1CC1 (configuration not stated)
cytotoxicity at 70.5 h: 1.06%

Cc1nn(C)c(C)c1C1CCCN1Cc1nc(N)c2ccccc2n1 (configuration not stated)
cytotoxicity at 70.5 h: -2.07%

Cc1nn(C)c(C)c1C1CCCN1Cc1nc2ccccc2c(=O)[nH]1 (configuration not stated)
cytotoxicity at 70.5 h: -0.414%

Cc1ccc(S(C)(=O)=O)cc1C(=O)N1CCCC(n2cncn2)C1 (configuration not stated)
cytotoxicity at 70.5 h: -3.44%

COc1ccc(C)cc1C(=O)N1CCCC(n2cncn2)C1 (configuration not stated)
cytotoxicity at 70.5 h: -3.25%

CC(C)c1n[nH]c(C2CN(CCc3cccs3)CCO2)n1 (configuration not stated)
cytotoxicity at 70.5 h: -6.41%

CC(=O)N(Cc1ncc(C)o1)C1CCN(Cc2ccccc2C#N)C1 (configuration not stated)
cytotoxicity at 70.5 h: -3.02%

Cc1nn(C)c(C)c1C1CCCN1Cc1nc2ccccc2n1C (configuration not stated)
cytotoxicity at 70.5 h: 0.883%

Cc1nccc(CNc2cc(N3CCCC3CO)ncn2)n1 (configuration not stated)
cytotoxicity at 70.5 h: 2.68%

Cc1cnn(CC2CCCN2Cc2nccn2CC(F)(F)F)c1 (configuration not stated)
cytotoxicity at 70.5 h: 0.0433%

CCN1CCC(NC(=O)CN2CCc3c(ncn3C3CC3)C2)CC1
cytotoxicity at 70.5 h: -9.11%

Cc1ccc(N2CCCC(NCc3c(C)noc3C)C2)nn1 (configuration not stated)
cytotoxicity at 70.5 h: -8.52%

Cc1ccc(S(=O)(=O)NCc2cccc(C(=O)N3CCCC3)c2)cc1F
cytotoxicity at 70.5 h: -7.96%

Cn1ccc(CN2CCC(CN3CCOCC3)CC2)cc1=O
cytotoxicity at 70.5 h: -7.39%

O=C(c1cn(-c2ccc(F)cc2)nn1)N1CCCC(n2cccn2)C1 (configuration not stated)
cytotoxicity at 70.5 h: -1.26%

CCN(CC)C(=O)NCCc1ccn(-c2ccccc2)n1
cytotoxicity at 70.5 h: 11%

CCc1nc(CN2CCN(C(C)c3nc(C4CC4)no3)CC2)no1 (configuration not stated)
cytotoxicity at 70.5 h: -10.3%

CC(C)(C)C(=O)NCCC(=O)NCCc1ccn(-c2ccccc2)n1
cytotoxicity at 70.5 h: -4.33%

O=C(CN1CCc2c(ncn2C2CC2)C1)NC1CCN(C2CC2)CC1
cytotoxicity at 70.5 h: 16.5%

Cc1cc(C)n(C2CCCN(C(=O)CCOc3cccc(F)c3)C2)n1 (configuration not stated)
cytotoxicity at 70.5 h: -2.12%

CCn1ccnc1CN1CCCN(C(=O)c2cnc(C)cn2)CC1
cytotoxicity at 70.5 h: -5.42%

CC(C)c1noc(C(C)N2CCN(Cc3noc(C(C)(C)C)n3)CC2)n1 (configuration not stated)
cytotoxicity at 70.5 h: -3.35%

Cn1ccc(CN2CCN(CC3CC3)CC2)cc1=O
cytotoxicity at 70.5 h: 21.6%

Cc1cnn(CC2CCCN2Cc2nnc(C3CC3)n2C)c1 (configuration not stated)
cytotoxicity at 70.5 h: -8.67%

CC(C)c1nc(C2CCCN(C(=O)c3nccn4ccnc34)C2)no1 (configuration not stated)
cytotoxicity at 70.5 h: -7.38%

CCn1ccnc1CN1CCCN(C(=O)Cc2ccccc2C)CC1
cytotoxicity at 70.5 h: -1.08%

CC(c1nc(C2CC2)no1)N1CCN(Cc2noc(C3CC3)n2)CC1 (configuration not stated)
cytotoxicity at 70.5 h: -2.08%

O=C(CCOCC(F)(F)F)N1CCCC(n2ccnc2)C1 (configuration not stated)
cytotoxicity at 70.5 h: -6.65%

CCc1n[nH]c(C2CN(C(=O)c3cscn3)CCO2)n1 (configuration not stated)
cytotoxicity at 70.5 h: 43%

CC(C)CCC(=O)NC(C)c1nnc2n1CCCCC2 (configuration not stated)
cytotoxicity at 70.5 h: -6.87%

Cc1nc(CN(C)C2CCN(CCCOc3ccccc3)C2)no1 (configuration not stated)
cytotoxicity at 70.5 h: 39.5%

CS(=O)(=O)N1CCC(NC(=O)COc2ccc(Cl)c(Cl)c2)CC1
cytotoxicity at 70.5 h: -8.67%

CN1CCC/C1=N\S(=O)(=O)c1ccc(NC(=O)c2cccs2)cc1
cytotoxicity at 70.5 h: -2.28%

Cc1cc(C)cc(OCC(=O)NC2CCN(S(C)(=O)=O)CC2)c1
cytotoxicity at 70.5 h: 23.8%

Cc1cc(NC(=O)NCC(C)N2CCc3ccccc32)no1 (configuration not stated)
cytotoxicity at 70.5 h: -5.5%

CC(C)NC(=O)Nc1ccc(CNCc2cccc(C#N)c2)cc1
cytotoxicity at 70.5 h: -3.33%

CCc1ccsc1C(=O)N1CCN(C(=O)CC(F)(F)F)CC1
cytotoxicity at 70.5 h: 3.81%

CCOc1ncccc1NC(=O)NC1CCN(S(C)(=O)=O)CC1
cytotoxicity at 70.5 h: 20.6%

CN(C(=O)CN1CCOC(Cn2cccn2)C1)c1nccs1 (configuration not stated)
cytotoxicity at 70.5 h: 9.89%

COC(=O)c1cccn1C1CCN(Cc2ccccc2)CC1
cytotoxicity at 70.5 h: 15.7%

Cc1cnn(CC2CCCN2CC(=O)Nc2cc(C(C)(C)C)no2)c1 (configuration not stated)
cytotoxicity at 70.5 h: 5.18%

CCc1ccsc1C(=O)N1CCN(CC(O)CC)CC1 (configuration not stated)
cytotoxicity at 70.5 h: 6.44%

CCOc1ncccc1C(=O)N1CCCC1c1c(C)nn(C)c1OC (configuration not stated)
cytotoxicity at 70.5 h: 1.14%

Cc1cnn(CC2CCCN2C(=O)c2cc(Cl)ccc2F)c1 (configuration not stated)
cytotoxicity at 70.5 h: 28.1%

c1ncn(CC2CN(CC3CCCC3)CCO2)n1 (configuration not stated)
cytotoxicity at 70.5 h: 0.357%

O=C(NCc1nnc2n1CCCCC2)N1CCc2sccc2C1
cytotoxicity at 70.5 h: -5.42%

O=C(NCc1csc(Br)c1)c1ccc(=O)[nH]n1
cytotoxicity at 70.5 h: -15.6%

Cn1ccc(CN2CCC(CCc3ccc(O)cc3)CC2)cc1=O
cytotoxicity at 70.5 h: -9.59%

Cc1nc(CN2CCCC2c2ccsc2)nc2ccccc12 (configuration not stated)
cytotoxicity at 70.5 h: 4.71%

CCN1CCC(NC(=O)CN2CCc3c(ncn3C)C2)CC1
cytotoxicity at 70.5 h: 2.11%

Clc1ccc(-n2cc(CNC3CCc4ncnn4C3)cn2)cc1 (configuration not stated)
cytotoxicity at 70.5 h: -12.4%

Cc1cnn(CC2CCCN2c2nn3cc(C)nc3s2)c1 (configuration not stated)
cytotoxicity at 70.5 h: -4.6%

CCc1nccn1C1CCCN(C(=O)Cc2n[nH]c3ccccc23)C1 (configuration not stated)
cytotoxicity at 70.5 h: -1.24%

Cc1nc2ccccc2nc1CN1CCCC1c1c(C)nn(C)c1C (configuration not stated)
cytotoxicity at 70.5 h: -4.26%

Cc1ccsc1CNc1cc(N2CCCC2CO)ncn1 (configuration not stated)
cytotoxicity at 70.5 h: -4.35%

Cc1[nH]ncc1C(=O)N1CCCC(n2cncn2)C1 (configuration not stated)
cytotoxicity at 70.5 h: -1.06%

Cc1nc(C)n(C2CCCN(C(=O)c3cc(C(N)=O)cs3)C2)n1 (configuration not stated)
cytotoxicity at 70.5 h: -17.1%

CCc1n[nH]c(C2CN(CCc3cccs3)CCO2)n1 (configuration not stated)
cytotoxicity at 70.5 h: 22.1%

O=C(NCc1nnc2ccccn12)N1CCc2sccc2C1
cytotoxicity at 70.5 h: -21.7%

c1cnn(CC2CN(CC3CCCC3)CCO2)c1 (configuration not stated)
cytotoxicity at 70.5 h: -9.69%

COc1ccc(C)cc1CN1CCCC1Cn1nc(C)nc1C (configuration not stated)
cytotoxicity at 70.5 h: -9.81%

CCc1n[nH]c(C2CN(CCc3ccncc3)CCO2)n1 (configuration not stated)
cytotoxicity at 70.5 h: -7.11%

Cc1nc(C2CCCN(C(=O)C(C)(C)n3cc(Cl)cn3)C2)no1 (configuration not stated)
cytotoxicity at 70.5 h: -13.5%

COc1cccc(CCC(=O)N2CCCC(n3cc(C)cn3)C2)c1 (configuration not stated)
cytotoxicity at 70.5 h: -15.8%

Cc1cnn(CC2CCCN2C(=O)c2ccc3[nH]nnc3c2)c1 (configuration not stated)
cytotoxicity at 70.5 h: 17.5%

CC(C)c1nc(CN2CCN(C(C)c3nc(C4CC4)no3)CC2)no1 (configuration not stated)
cytotoxicity at 70.5 h: -4.05%

O=C(NCCCn1cncn1)NCC(c1ccco1)N1CCCCC1 (configuration not stated)
cytotoxicity at 70.5 h: -18.7%

CC(Cn1cccn1)NC(=O)NCc1ccc(S(N)(=O)=O)cc1 (configuration not stated)
cytotoxicity at 70.5 h: -7.93%

Cc1cnn(CC2CN(Cc3nc(N)c4ccccc4n3)CCO2)c1 (configuration not stated)
cytotoxicity at 70.5 h: 22.8%

Cc1cnn(CC2CCCCN2C(=O)c2ccc3nnc(C)n3c2)c1 (configuration not stated)
cytotoxicity at 70.5 h: -10.9%

O=C(CCc1cccs1)N1CCC(N2CCNC2=O)CC1
cytotoxicity at 70.5 h: -0.95%

Cc1ccc(C(=O)NC2CCN(C(=O)Nc3ccccn3)CC2)o1
cytotoxicity at 70.5 h: 16.1%

CCN(Cc1nc2c(cnn2C)c(=O)[nH]1)c1cccc(Cl)c1
cytotoxicity at 70.5 h: -15.8%

Cc1cc(F)ccc1S(=O)(=O)NCc1cccc(C(=O)N2CCCC2)c1
cytotoxicity at 70.5 h: -14.8%

COc1ccc(C(=O)N(C)Cc2nnc3ccccn23)c(OC)c1
cytotoxicity at 70.5 h: -15.7%

O=C(c1ccc(-n2cccn2)nc1)N1CCC(Nc2cccnn2)CC1
cytotoxicity at 70.5 h: -18.2%

O=C(NCc1cccnc1)C1CC(=O)N(CC2CC2)C1 (configuration not stated)
cytotoxicity at 70.5 h: -6.68%

CCc1ccc(OCC(O)CN2CCC(O)CC2)cc1 (configuration not stated)
cytotoxicity at 70.5 h: 24.8%

COc1cccc(CNC(=O)CN2CCCCC2Cn2cccn2)c1 (configuration not stated)
cytotoxicity at 70.5 h: -7.75%

CCn1cc(CN2CCCN(C(=O)Cc3ccc(C)nc3)CC2)cn1
cytotoxicity at 70.5 h: -9.56%

COc1c(CNCc2ccc(C(=O)NC3CC3)cc2)c(C)nn1C
cytotoxicity at 70.5 h: -3.83%

Source: ChEMBL document CHEMBL3507680, “University of Dundee, Gates Library screen for HepG2 cell viability”
